Experimental findings from PMC11946258, “Self-Assembly, Antimicrobial Properties and Biodegradability of Ester-Functionalized Choline-Based Surface-Active Ionic Liquids” (Molecules, 2025) are described below.

Bounds are passed on as bounds.

For one assay, the system named is Acinetobacter baumannii. Briefly: MIC broth microdilution. It counts as cell-based. The settings on record: ATCC19606; Acinetobacter baumannii ATCC 19606, 24 h, 37 °C. How it is done:
(§1) The antimicrobial activity of cholinium-based ILs with an ester group in the alkyl chain was evaluated against a range of representative bacteria and fungi.
(§2) Antibacterial assays were performed against the following microorganisms: Bacillus subtilis ATCC 6633, Staphylococcus epidermidis ATCC 12228, Staphylococcus aureus ATCC 29213, Micrococcus luteus ATCC10240, Listeria monocytogenes ATCC 15313, methicillin-resistant Staphylococcus aureus ATCC 43300, Escherichia coli ATCC 8739, Acinetobacter baumannii ATCC 19606, Klebsiella aerogenes ATCC 13048, Pseudomonas aeruginosa 9027, and Salmonella enterica ATCC14208. The antibacterial activity was assessed in vitro using the minimum inhibitory concentration (MIC) method. MIC is defined as the lowest concentration of an antimicrobial agent that prevents visible bacterial growth after 24 h of incubation at 37 °C. The ionic liquids were dissolved in Mueller–Hinton broth (MBH) at concentrations ranging from 1 to 256 μg/mL. The broth was added (200 μL) to appropriate wells of a 96-well polystyrene microtitre plate. Then, 10 μL of a nutrient broth starter culture of each bacterial strain was added to achieve final inocula of approximately […] colony forming units (CFU)/mL. A growth control using nutrient broth medium without the ionic liquid was included. The plates were incubated 37 °C for 24 h. Bacterial growth was initially observed visually, with increased turbidity indicating cell growth. […] A color change of resazurine from blue to pink indicated bacterial metabolic activity. All the experiments were performed in triplicate to ensure reproducibility.

Another assay deals with Escherichia coli. In words: MIC broth microdilution. The format is cell-based. The settings on record: ATCC8739; Escherichia coli ATCC 8739, 24 h, 37 °C. How it is done: as §1, §2
For a further assay, the system named is Klebsiella aerogenes. In words: MIC broth microdilution. The format is cell-based. As to conditions: ATCC13048; Klebsiella aerogenes ATCC 13048, 24 h, 37 °C. How it is done:
as §1, §2
A general note: In broth dilution the organism is exposed to a series of concentrations in liquid medium.

Another assay concerns Listeria monocytogenes. Briefly: MIC broth microdilution. It counts as cell-based. As to conditions: ATCC15313; Listeria monocytogenes ATCC 15313, 24 h, 37 °C. How it is done: as §1, §2
The subject of a further assay is Micrococcus luteus. Briefly: MIC broth microdilution. It counts as cell-based. As to conditions: Micrococcus luteus ATCC10240, 24 h, 37 °C. As to the method: as §1, §2
For the next assay, the system named is Pseudomonas aeruginosa. In words: MIC broth microdilution. It counts as cell-based. As to conditions: Pseudomonas aeruginosa 9027, 24 h, 37 °C. As to the method: as §1, §2
A further assay deals with Salmonella enterica. Briefly: MIC broth microdilution. It counts as cell-based. As to conditions: Salmonella enterica ATCC14208, 24 h, 37 °C. How it is done: as §1, §2
Another assay deals with Staphylococcus aureus. In words: MIC broth microdilution. The settings on record: ATCC29213; Staphylococcus aureus ATCC 29213, 24 h, 37 °C. It counts as cell-based. How it is done: as §1, §2
For assay [1], the system named is Staphylococcus epidermidis. Briefly: MIC broth microdilution. The format is cell-based. As to conditions: ATCC12228; Staphylococcus epidermidis ATCC 12228, 24 h, 37 °C. As to the method: as §1, §2
For the next assay, the system named is MRSA biofilm. Briefly: MRSA biofilm formation inhibition (crystal violet). The format is cell-based, methicillin-resistant Staphylococcus aureus. As to conditions: Staphylococcus aureus, at 128 µg/mL (highest concentration tested), 24 h, 37 °C, CV staining. As to the method: To assess the ability of ester-functionalized cholinium-based ILs to suppress MRSA biofilm formation, CnECholBr samples were introduced to newly prepared bacterial suspensions. These mixtures were then incubated for 24 h at 37 °C. Subsequently, crystal violet (CV) staining was employed to quantify the biofilm biomass. The findings from this experiment are illustrated in Figure 4.
Antibiofilm activity was assessed against biofilm-forming strains of methicillin-resistant Staphylococcus aureus (MRSA) ATCC 43300 and Candida albicans ATCC 90028. The biofilm inhibition and eradication capacities of ILs were evaluated against adherent bacterial biofilms grown in 96-well microtiter plates. Bacteria were grown on Tryptic soy agar at 37 °C for 24 h and the fungi on Sabouraud agar at 30 °C for 24 h. Bacteria were suspended in lysogeny broth containing glucose (1%) at 1.5 × 10^8 CFU/mL and yeasts were suspended in RPMI medium at 1.5 × 10^7 CFU/mL.
To assess the effect of ionic liquids on bacterial biofilm formation, we employed a microplate assay. We added 100 μL of IL at varying concentrations (2–128 μg/mL, using two-fold serial dilutions) to each well of a 96-well microplate, followed by 100 μL of diluted bacterial suspension. After incubating the plates at 37 °C for 24 h, we measured bacterial growth by recording the optical density at 600 nm (OD600). We then discarded the spent media, fixed the biofilm with methanol, and stained it with crystal violet. Following a water rinse, we dissolved the stained biofilm using an ethanol-acetic acid solution and measured the absorbance at 570 nm to quantify biofilm formation. To ensure reproducibility, we performed each assay in triplicate and averaged the results.

In general, MIC refers to the lowest concentration found to suppress growth. A lower MIC goes with greater potency. As usually defined, the inhibition is the drop in the measured response relative to a control, in per cent. Read a high inhibition as a response far below the control. Regarding `CCCCCCCCCCCCOC(=O)C[N+](C)(C)CCO` [C12ECholBr], the MIC in the assay on Acinetobacter baumannii is over 256 µg/mL; against Escherichia coli, over 256 µg/mL; in the assay with Klebsiella aerogenes, over 256 µg/mL; with Listeria monocytogenes it was over 256 µg/mL; in the assay on Micrococcus luteus it was 16 µg/mL; against Pseudomonas aeruginosa, over 256 µg/mL. Besides, the MIC was over 256 µg/mL in the assay with Salmonella enterica, 64 µg/mL against Staphylococcus aureus and 64 µg/mL in [1]. Further, the inhibition at 128 µg/mL with MRSA biofilm was over 90%.
In the case of `CCCCCCCCCCCCCCOC(=O)C[N+](C)(C)CCO.[Br-]` [C14ECholBr, N-(2-hydroxyethyl)-N,N-dimethyl-2-oxo-2-(tetradecyloxy)ethan-1-aminium bromide], the MIC was over 256 µg/mL with Acinetobacter baumannii; over 256 µg/mL against Escherichia coli; over 256 µg/mL in the assay on Klebsiella aerogenes; over 256 µg/mL in the assay with Listeria monocytogenes; 8 µg/mL against Micrococcus luteus; over 256 µg/mL against Pseudomonas aeruginosa. The values for the minimum inhibitory concentration (MIC) (in the assay with Salmonella enterica; against Staphylococcus aureus; in assay [1]) were over 256 µg/mL, 128 µg/mL and 64 µg/mL, respectively. In addition, the inhibition at 128 µg/mL in the assay on MRSA biofilm is at most 50%.
On to `CCCCCCCCCCOC(=O)C[N+](C)(C)CCO` [C10ECholBr], for which the MIC against Acinetobacter baumannii, with Escherichia coli, with Klebsiella aerogenes, against Listeria monocytogenes, against Micrococcus luteus and with Pseudomonas aeruginosa was over 256 µg/mL each time. Moreover, the MIC (in the assay on Salmonella enterica; with Staphylococcus aureus; in assay [1]) was over 256 µg/mL throughout. The same compound came in with an inhibition at 128 µg/mL in the assay with MRSA biofilm of under 15%.
